Reference: ChEMBL document CHEMBL3352083, “Antibacterial activity of novel benzopolycyclic amines” (Bioorg Med Chem, 2015)
≈ marks a conversion by molar mass, not a printed value. Calls of active or inactive are those of the source. The rule behind the calls is not given here.

Columns and labels:
Staphylococcus aureus [1] = assay: Antimicrobial activity against Staphylococcus aureus CECT 86 ATCC 12600 incubated for 18 hrs by microplate reader based assay; assay type: functional; conditions: CECT 86 ATCC 12600, 18 h; for MIC: read-out: MIC100
Pseudomonas aeruginosa = assay: Antimicrobial activity against Pseudomonas aeruginosa PAO1 CECT 4122 ATCC 15692 incubated for 18 hrs by microplate reader based assay; assay type: functional; conditions: for MIC: read-out: MIC100
[2] = Selectivity index, ratio of CC50 for macrophages (unknown origin) to MIC50 for Staphylococcus aureus CECT 86 ATCC 12600; assay type: functional
[3] = Toxicity against macrophages (unknown origin) assessed as reduction in cell viability after 24 to 48 hrs by MTT assay; assay type: cell-based, Macrophage
[4] = Antimicrobial activity against Streptococcus mutans CECT 479 ATCC 25175 incubated for 18 hrs by microplate reader based assay; assay type: functional, Streptococcus mutans ATCC 25175; conditions: CECT 479, 18 h
[5] = system: Staphylococcus epidermidis; assay: Antimicrobial activity against Staphylococcus epidermidis CECT 231 ATCC 1798 incubated for 18 hrs by microplate reader based assay; assay type: functional; conditions: CECT 231 ATCC 1798, 18 h
Staphylococcus aureus [6] = assay: Antimicrobial activity against methicillin-resistant Staphylococcus aureus incubated for 18 hrs by microplate reader based assay; assay type: functional
[7] = Selectivity index, ratio of CC50 for macrophages (unknown origin) to MIC50 for methicillin-resistant Staphylococcus aureus; assay type: functional
Staphylococcus aureus [8] = assay: Bacteriolytic activity against Staphylococcus aureus CECT 86 ATCC 12600 at 36 uM incubated for 3 hrs by live/dead assay; assay type: functional, organism-based
Staphylococcus aureus [9] = assay: Anti-biofilm activity against Staphylococcus aureus CECT 86 ATCC 12600 incubated for 24 to 48 hrs; assay type: functional
[10] = Selectivity index, ratio of CC50 for macrophages (unknown origin) to MIC50 for Staphylococcus epidermidis CECT 231 ATCC 1798; assay type: functional
Burkholderia cenocepacia = assay: Antimicrobial activity against Burkholderia cenocepacia J2315 incubated for 18 hrs by microplate reader based assay; assay type: functional; conditions: J2315, 18 h
[11] = Selectivity index, ratio of CC50 for macrophages (unknown origin) to MIC50 for Streptococcus mutans CECT 479 ATCC 25175; assay type: functional
[12] = Selectivity index, ratio of CC50 for macrophages (unknown origin) to MIC50 for Enterococcus faecalis CECT 481 ATCC 19433; assay type: functional
[13] = Antimicrobial activity against Enterococcus faecalis CECT 481 ATCC 19433 incubated for 18 hrs by microplate reader based assay; assay type: functional, Enterococcus faecalis ATCC 19433; conditions: CECT 481, 18 h
[14] = PAO1 CECT 4122 ATCC 15692, 18 h

SMILES | MIC50 (Staphylococcus aureus [1]) | MIC (Staphylococcus aureus [1]) | MIC50 (Pseudomonas aeruginosa) | further results
NC12CC3CC(F)(CC(C1)c1ccccc13)C2 | 95 µM (≈ 22 µg/mL) | < 312 µM | inactive | 
CN(C)C12CC3CC(C1)c1ccccc1C(C3)C2 | 304 µM (≈ 73.4 µg/mL) | < 625 µM | inactive | Selectivity Index [2]: 0.15; CC50 [3]: 44.5 µM
O=C(O)c1cn(C2CC2)c2cc(N3CCNCC3)c(F)cc2c1=O [CIPROFLOXACIN] | 0.3 µM (≈ 0.0994 µg/mL) |  |  | MIC50 (Pseudomonas aeruginosa; [14]): 1.2 µM (≈ 0.398 µg/mL)
NC12CC3CC(C1)c1ccccc1C(C3)C2 | 17 µM (≈ 3.63 µg/mL) | > 39 µM | inactive | Selectivity Index [2]: 3.4; CC50 [3]: 58.5 µM
CN(C)C12CC3CC(C)(CC(C1)c1ccccc13)C2 | > 1000 µM |  | inactive | 
Nc1ccc2c(c1)C1CC3(N)CC2CC(F)(C1)C3 (stereo not given) | < 375 µM | < 1250 µM |  | 
CN(C)C12CC3CC(F)(CC(C1)c1cc([N+](=O)[O-])ccc13)C2 (stereo not given) | < 425 µM | < 1250 µM |  | 
NNC12CC3CC(CC(C1)c1ccccc13)O2 | > 1000 µM |  | inactive | 
CN(C)C12CC3CC(Cl)(CC(C1)c1ccccc13)C2 | < 625 µM | < 1250 µM |  | 
CN(Cc1ccccc1)C12CC3CC(C)(CC(C1)c1ccccc13)C2 | > 1000 µM |  | inactive | 
CC12CC3CC(NCC(N)=O)(CC(C1)c1ccccc13)C2 | > 1000 µM |  | inactive | 
CC12CC3CC(N)(CC(C1)c1ccccc13)C2 | > 1000 µM |  | inactive | 
Cl.NC12CC3CC(Cl)(CC(C1)c1ccccc13)C2 | 36 µM | < 156 µM |  | Selectivity Index [2]: 10.1; MIC50 [4]: 60 µM; MIC ([4]; read-out: MIC100): > 250 µM; MIC50 [5]: 75 µM; MIC ([5]; read-out: MIC100): < 250 µM; CC50 [3]: 363 µM; MIC50 (Pseudomonas aeruginosa; [14]): 1250 µM; MIC (Pseudomonas aeruginosa; [14]): > 1250 µM; MIC50 (Staphylococcus aureus [6]): 75 µM; MIC (Staphylococcus aureus [6]; read-out: MIC100): < 180 µM; Selectivity Index [7]: 4.84; Activity (Staphylococcus aureus [8]): Active; MBIC50 (Staphylococcus aureus [9]): 45 µM; Selectivity Index [10]: 4.84; MIC50 (Burkholderia cenocepacia): < 125 µM; MIC (Burkholderia cenocepacia; read-out: MIC100): > 250 µM; Selectivity Index [11]: 6.05; Selectivity Index [12]: 6.05; MIC50 [13]: 60 µM; MIC ([13]; read-out: MIC100): > 250 µM
c1ccc(CN(Cc2ccccc2)C23CC4CC(CC(C2)c2ccccc24)O3)cc1 | > 1000 µM |  | inactive | 
CN(C)C12CC3CC(C)(CC(C1)c1ccccc13)O2 | > 1000 µM |  | inactive | 
CCN(CC)C12CC3CC(C)(CC(C1)c1ccccc13)O2 | > 1000 µM |  | inactive | 
NC12CC3CC(CC(C1)c1ccccc13)O2 | > 1000 µM |  | inactive | 
c1ccc(CNC23CC4CC(CC(C2)c2ccccc24)O3)cc1 | > 1000 µM |  | inactive | 
CN(C)C12CC3CC(F)(CC(C1)c1ccccc13)C2 | > 1000 µM |  | inactive | 
CN(Cc1ccccc1)C12CC3CC(CC(C1)c1ccccc13)O2 | > 1000 µM |  | inactive | 
NC12CC3CC(F)(CC(C1)c1cc([N+](=O)[O-])ccc13)C2 (stereo not given) | 125 µM (≈ 34.5 µg/mL) | < 312 µM |  | 
C#CCNC12CC3CC(CC(C1)c1ccccc13)O2 | > 1000 µM |  | inactive | 
CN(C)C12CC3CC(O)(CC(C1)c1ccccc13)C2 | > 1000 µM | > 10000 µM |  | CC50 [3]: > 100 µM; MIC50 (Pseudomonas aeruginosa; [14]): < 2500 µM; MIC (Pseudomonas aeruginosa; [14]): 5000 µM (≈ 1290 µg/mL)
CC(=O)NC12CC3CC(C)(CC(C1)c1ccccc13)O2 | > 1000 µM |  | inactive | 
CC12CC3CC(NCc4ccccc4)(CC(C1)c1ccccc13)C2 | > 1000 µM |  | inactive | 
